In brackets after ≈: the same amount, converted by molar mass. Read-outs that look alike come from different tables or passages of the source.
Assays:
[1] = system: MRSA-MW2 infection of C. elegans; assay: C. elegans–MRSA-MW2 high-throughput screen (Z-score, alive versus dead worms); format: in vivo, Caenorhabditis elegans; conditions: screening concentration 2.86 µg/mL, hits Z > 2
Excerpt: The five compounds: (4,4′,4″-(4-propyl-[1H]-pyrazole-1,3,5-triyl)trisphenol, PPT; (1S,2S)-2-[2-[[3-(1H-benzimidazol-2-yl)propyl]methylamino]ethyl]-6-fluoro-1,2,3,4-tetrahydro-1-(1-methylethyl)-2- naphthalenyl cyclopropanecarboxylate dihydrochloride, NNC; 4,5,6,7-tetrabromobenzotriazole, TBB; 3-[2-[2-chloro-4-[3-(2,6-dichlorophenyl)-5-(1-methylethyl)-4-isoxazolyl]methoxy]phenyl] ethenyl] benzoic acid, GW4064; and N-(cyclopropylmethoxy)-3,4,5-trifluoro-2-[(4-iodo-2-methylphenyl)amino] benzamide, PD198306) were purchased from Tocris Bioscience at the following levels of purity: PPT: >99.7%, NNC: >98%, TBB: >99%, GW4064: >97%, and PD198306: 98.8%. […] Hits were identified based on Z-scores. Z-scores are calculated from the ratio of alive versus dead worms after treatment with test compounds and represents the number of standard deviations (SD) the test compound differs from the mean using the formula Z = (x − μ)/σ; where x is the raw sample score, μ is the mean of the population and σ is the standard deviation of the population. Samples with Z > 2σ are considered hits.

[2] = system: MRSA MW2 infection of Galleria mellonella larvae; assay: G. mellonella–MRSA survival assay; format: in vivo; conditions: larvae infected with MRSA MW2 5 × 10^5 CFU, compound 10 mg/kg 2 h after infection, monitored 120 h; untreated 1 day
Protocol: Larvae were infected with MRSA MW2 (5 × 10^5 CFU) in the left rear proleg, and after two hours, the compounds were introduced separately at 10 mg/kg into the right rear proleg and larvae survival was monitored for 120 h.
Assays were performed as described previously. Briefly, sixteen randomly selected G. mellonella larvae (Vanderhorst, Inc., St. Mary’s, OH, USA) between 300–350 mg were used for each test group. MRSA-MW2 was grown in Tryptic Soy Broth (TSB), washed with phosphate buffered saline (PBS, pH = 7.4), and diluted to OD600 = 0.3 before inoculation into G. mellonella larvae. A 10-μL inoculum was injected into the last left proleg using a 10-μL Hamilton syringe. After 2 h, compounds were administered into the last right proleg and larvae were incubated at 37 °C. G.mellonella survival was monitored for 120 h, and death was confirmed when there was no response. Killing curves and differences in survival were analyzed by the Kaplan–Meier method using GraphPad Prism version 8 (GraphPad Software, La Jolla, CA, USA). Statistical analysis (Kruskal–Wallis test) was carried out using the same program.

[3] = system: MRSA MW2; assay: Broth microdilution antibacterial susceptibility (MIC/MBC), MRSA MW2; format: cell-based, Staphylococcus aureus; conditions: for MBC: MRSA MW2
Protocol: (§1) In vitro antibacterial activities were determined using the broth microdilution method. Assays were performed as described in Clinical and Laboratory Standards Institute protocols in triplicate using cation-adjusted Muller–Hinton broth (Becton Dickinson and Company, Franklin Lakes, NJ, USA) in 96-well plates with a total assay volume of 100 µL. Two-fold serial dilutions of test compounds were prepared over the concentration range of 1–64 µg/mL. The bacterial concentration was adjusted to OD600 = 0.06. […] A 10 µL aliquot from each well in the MIC assays was plated onto Muller–Hinton agar (Becton Dickinson and Company, Franklin Lakes, NJ, USA) and incubated overnight at 37 °C. The lowest concentration of compound for which no growth was observed on agar plates was reported as the minimal bactericidal concentration (MBC).

[4] = system: clinical S. aureus isolate BF1; assay: Broth microdilution MIC, clinical S. aureus isolate BF1; format: cell-based; conditions: Staphylococcus aureus; BF1; read-out: MIC
Protocol: as §1

[5] = system: clinical S. aureus isolate BF2; assay: Broth microdilution MIC, clinical S. aureus isolate BF2; format: cell-based; conditions: Staphylococcus aureus; BF2; read-out: MIC
Protocol: as §1

[6] = system: clinical S. aureus isolate BF4; assay: Broth microdilution MIC, clinical S. aureus isolate BF4; format: cell-based; conditions: Staphylococcus aureus; BF4; read-out: MIC
Protocol: as §1

[7] = system: Enterococcus faecium; assay: Broth microdilution MIC, Enterococcus faecium; format: cell-based; conditions: read-out: MIC
Protocol: as §1

[8] = system: Klebsiella pneumoniae; assay: Broth microdilution MIC, Klebsiella pneumoniae; format: cell-based; conditions: read-out: MIC
Protocol: as §1

[9] = system: Acinetobacter baumannii; assay: Broth microdilution MIC, Acinetobacter baumannii; format: cell-based; conditions: read-out: MIC
Protocol: as §1

[10] = system: Pseudomonas aeruginosa; assay: Broth microdilution MIC, Pseudomonas aeruginosa; format: cell-based; conditions: read-out: MIC
Protocol: as §1

[11] = system: MRSA MW2; assay: Sytox green membrane permeabilization; format: cell-based, Staphylococcus aureus; conditions: compounds at 64 µg/mL, monitored over 1 h
Protocol: To determine whether the compounds target bacterial membranes, MRSA MW2 was treated with the compounds and uptake of the membrane-impermeable DNA-binding fluorescent dye Sytox green was monitored over 1 h (Figure 4).
Sytox Green (Life Technologies, Needham, MA, USA) membrane permeabilization assays were performed as previously described. The experiments were carried out in duplicate in 96-well plates. Cells were grown to log phase and were harvested by centrifuging at 3700× g for 5 min. The cells were washed twice with PBS and resuspended to OD600 = 0.2, following which 5 µM Sytox green was added to the cells and the bacteria-dye mixture were incubated in the dark for 30 mins.
Cell suspensions (50 µL) were added to 50 µL of test compounds (64 µg/mL in PBS) and fluorescence intensity was measured (excitation 485 nm, emission 530 nm) periodically over 60 min.

[12] = system: MRSA-MW2; assay: Checkerboard synergy assay (FIC index); format: cell-based, Staphylococcus aureus; conditions: synergy FIC ≤ 0.5
Protocol: The combination of two antibiotics with different modes of action can reduce bacterial resistance and sometimes even restore clinical efficacy of an antibiotic that has lost effectiveness. The five compounds were tested against MRSA-MW2 in the presence of five clinical antibiotics from different classes (i.e., polymyxin B, gentamycin, erythromycin, doxycycline, and oxacillin).
Antibacterial synergy for combinations of the compounds with each other and with clinical antibiotics (doxycycline, gentamicin, polymyxin-B, oxacillin, and erythromycin) was measured using checkerboard assays. In short, Cultures of MRSA-MW2 were adjusted to OD600 = 0.06 and one compound was arrayed horizontally and other vertically in 96 well plates. The assays were carried out in triplicate, exactly as described for the antibacterial susceptibility assays. The inhibitory effects of compound combinations were evaluated using the Fractional Inhibitory Concentration (FIC) index, derived from the formula:FIC index = FICA + FICB = [A]/MICA + [B]/MICB
MIC of substance A tested in combination /MIC of substance A tested alone + MIC of substance B tested in combination/MIC of substance B tested alone. Synergy is indicated when FIC ≤ 0.5, indifference when 0.5 ≤ FIC ≤ 4, and antagonism when FIC > 4. Experiments were performed in duplicate and report the average FIC index.

[13] = system: MKN-28; conditions: human, 24 h
Protocol: Mammalian cell lines HepG2 (hepatic cells), A549 (epithelial cells), and MKN-28 (gastric cells) were used to measure the anti-proliferative properties of test compounds, as described elsewhere [28]. Cells were grown in Dulbecco’s Modified Eagle Medium (DMEM) (Gibco, Waltham, MA, USA) supplemented with 10% Fetal Bovine Serum (FBS) (Gibco, Waltham, MA, USA) and 1% penicillin/streptomycin (Gibco, Waltham, MA, USA) and maintained at 37 °C in 5% CO2. After harvesting, the cells were suspended in DMEM and 100 µL was added to the wells of 96-well plates. The test compounds were serially diluted in serum and antibiotic free DMEM, added to the monolayer of cells, and incubated at 37 °C in 5% CO2 for 24 hr. Percentage survival was calculated by comparison to DMSO-treated vehicle controls. Assays were carried out in triplicate.

Q: `Cc1cc(I)ccc1Nc1c(C(=O)NOCC2CC2)cc(F)c(F)c1F` [PD198306, N-(Cyclopropylmethoxy)-3,4,5-trifluoro-2-[(4-iodo-2-methylphenyl)amino]-benzamide] was tested. Which Z-Score [1] did it give?
A: 3.43

Q: And the median post-infection survival [2]?
A: 2 days

Q: And the MBC [3]?
A: >64 µg/mL

Q: What about the MIC ([3]; Staphylococcus aureus, MRSA MW2, 18 h, 37 °C, read-out: MIC) of the same compound?
A: 2 µg/mL (≈ 4.2 µM)

Q: And the MBC ([3]; Staphylococcus aureus, read-out: MBC)?
A: > 64 µg/mL

Q: What about the MIC [4] of the same compound?
A: 2 µg/mL (≈ 4.2 µM)

Q: What about the MIC [5] of the same compound?
A: 2 µg/mL (≈ 4.2 µM)

Q: And the MIC [6]?
A: 2 µg/mL (≈ 4.2 µM)

Q: What about the MIC [7] of the same compound?
A: 2 µg/mL (≈ 4.2 µM)

Q: And the MIC [8]?
A: > 64 µg/mL

Q: And the MIC [9]?
A: 32 µg/mL (≈ 67.2 µM)

Q: What about the MIC [10] of the same compound?
A: > 64 µg/mL

Q: What about the “cellular fluorescence (Sytox green uptake)” value [11] of the same compound?
A: no changes in cellular fluorescence

Q: And the “Fractional Inhibitory Concentration (FIC) Index” value ([12]; with Doxycycline)?
A: 2.0

Q: What about the “Fractional Inhibitory Concentration (FIC) Index” value ([12]; with Erythromycin) of the same compound?
A: 0.5

Q: And the “Fractional Inhibitory Concentration (FIC) Index” value ([12]; with Gentamycin)?
A: 0.625

Q: And the “Fractional Inhibitory Concentration (FIC) Index” value ([12]; with Oxacillin)?
A: 0.75

Q: What about the “Fractional Inhibitory Concentration (FIC) Index” value ([12]; with Polymyxin B) of the same compound?
A: 1.0

Q: What about the Eukaryotic cell cytotoxicity [13] of the same compound?
A: 16 µg/mL

Reference: publication PMC7459823, “Characterization of Five Novel Anti-MRSA Compounds Identified Using a Whole-Animal Caenorhabditis elegans/Galleria mellonella Sequential-Screening Approach” (Antibiotics, 2020)
